Measurements: the NIST ThermoML archive (doi:10.1016/j.jct.2015.10.011)
Numbers after ± are expanded uncertainties.

Settings: 298.15 K; 101.33 kPa; Liquid; Vibrating tube method

Structure (SMILES): CCCCCC [hexane]
- mass density: 655.19 ± 0.83 kg/m3
